Experiments:
Settings in all cases: exposure time: 72 h
E31 [1] = patient-derived glioblastoma stem cells of proneural subtype; assay: phenotypic distance (Euclidean, principal components) from DMSO controls (arbitrary units); higher = stronger morphological change
FT3469 [2] = normal neural stem cell line; assay: as above
E57 [3] = patient-derived glioblastoma stem cells of mesenchymal subtype; assay: as above
E21 [4] = patient-derived glioblastoma stem cells of mesenchymal subtype; assay: as above
E13 [5] = patient-derived glioblastoma stem cells of classical subtype; assay: as above
E28 [6] = patient-derived glioblastoma stem cells of classical subtype; assay: as above
E34 [7] = patient-derived glioblastoma stem cells of proneural subtype; assay: as above
E31 [8] = assay: surviving fraction (nuclei count normalised to DMSO); higher = more cells surviving (less toxic)
FT3469 [9] = assay: as above
E57 [10] = assay: as above
E21 [11] = assay: as above
E13 [12] = assay: as above
E28 [13] = assay: as above
E34 [14] = assay: as above
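Wherever phenotypic distance (Euclidean, principal components) from DMSO controls is given: cell Painting imaging in 384-well plates, CellProfiler features reduced to at least 20 principal components, Euclidean distance versus same-plate DMSO vehicle wells (0.1% v/v), median over six images per well.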
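Wherever surviving fraction (nuclei count normalised to DMSO) is given: nuclei counted by high-content imaging of Hoechst-stained cells in laminin-coated 384-well plates, relative to 0.1% DMSO vehicle wells, with staurosporine as cell-death control.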

O=C(Oc1cccc2cccnc12)c1ccccc1 [Benzoxiquine]
Settings | phenotypic distance | surviving fraction
E13 [5], 4.1 nM | 1.08 | –
E13 [5], 12.3 nM | 1.14 | –
E13 [5], 37 nM | 0.78 | –
E13 [5], 111.1 nM | 0.506 | –
E13 [5], 333.3 nM | 0.775 | –
E13 [5], 1000 nM | 0.864 | –
E13 [5], 3000 nM | 19.1 | –
E13 [12], 4.1 nM | – | 0.876
E13 [12], 12.3 nM | – | 0.962
E13 [12], 37 nM | – | 1.05
E13 [12], 111.1 nM | – | 0.997
E13 [12], 333.3 nM | – | 1.09
E13 [12], 1000 nM | – | 0.85
E13 [12], 3000 nM | – | 0.000925
E21 [4], 4.1 nM | 1.17 | –
E21 [4], 12.3 nM | 0.851 | –
E21 [4], 37 nM | 1.34 | –
E21 [4], 111.1 nM | 0.833 | –
E21 [4], 333.3 nM | 1.24 | –
E21 [4], 1000 nM | 0.732 | –
E21 [4], 3000 nM | 23.9 | –
E21 [11], 4.1 nM | – | 0.962
E21 [11], 12.3 nM | – | 1.11
E21 [11], 37 nM | – | 1.13
E21 [11], 111.1 nM | – | 1.1
E21 [11], 333.3 nM | – | 0.981
E21 [11], 1000 nM | – | 1.04
E21 [11], 3000 nM | – | 0
E28 [6], 4.1 nM | 1.39 | –
E28 [6], 12.3 nM | 0.791 | –
E28 [6], 37 nM | 1.24 | –
E28 [6], 111.1 nM | 0.938 | –
E28 [6], 333.3 nM | 0.845 | –
E28 [6], 1000 nM | 1.59 | –
E28 [6], 3000 nM | 17.6 | –
E28 [13], 4.1 nM | – | 0.997
E28 [13], 12.3 nM | – | 1.14
E28 [13], 37 nM | – | 1.07
E28 [13], 111.1 nM | – | 1.1
E28 [13], 333.3 nM | – | 1.07
E28 [13], 1000 nM | – | 1.27
E28 [13], 3000 nM | – | 0.00427
E31 [1], 4.1 nM | 1.12 | –
E31 [1], 12.3 nM | 1.22 | –
E31 [1], 37 nM | 0.854 | –
E31 [1], 111.1 nM | 1.7 | –
E31 [1], 333.3 nM | 1.32 | –
E31 [1], 1000 nM | 1.22 | –
E31 [1], 3000 nM | 15.5 | –
E31 [8], 4.1 nM | – | 0.993
E31 [8], 12.3 nM | – | 0.838
E31 [8], 37 nM | – | 0.975
E31 [8], 111.1 nM | – | 1.19
E31 [8], 333.3 nM | – | 1.04
E31 [8], 1000 nM | – | 1.04
E31 [8], 3000 nM | – | 0
E34 [7], 4.1 nM | 0.673 | –
E34 [7], 12.3 nM | 0.614 | –
E34 [7], 37 nM | 0.56 | –
E34 [7], 111.1 nM | 0.455 | –
E34 [7], 333.3 nM | 0.815 | –
E34 [7], 1000 nM | 1.42 | –
E34 [7], 3000 nM | 19.8 | –
E34 [14], 4.1 nM | – | 0.906
E34 [14], 12.3 nM | – | 0.899
E34 [14], 37 nM | – | 0.981
E34 [14], 111.1 nM | – | 1.1
E34 [14], 333.3 nM | – | 1.07
E34 [14], 1000 nM | – | 0.844
E34 [14], 3000 nM | – | 0.00175
E57 [3], 4.1 nM | 0.568 | –
E57 [3], 12.3 nM | 0.458 | –
E57 [3], 37 nM | 0.358 | –
E57 [3], 111.1 nM | 0.673 | –
E57 [3], 333.3 nM | 0.716 | –
E57 [3], 1000 nM | 0.72 | –
E57 [3], 3000 nM | 13.7 | –
E57 [10], 4.1 nM | – | 0.965
E57 [10], 12.3 nM | – | 0.992
E57 [10], 37 nM | – | 0.997
E57 [10], 111.1 nM | – | 1.01
E57 [10], 333.3 nM | – | 0.999
E57 [10], 1000 nM | – | 1.02
E57 [10], 3000 nM | – | 0.00305
FT3469 [2], 4.1 nM | 0.579 | –
FT3469 [2], 12.3 nM | 0.893 | –
FT3469 [2], 37 nM | 0.62 | –
FT3469 [2], 111.1 nM | 0.641 | –
FT3469 [2], 333.3 nM | 1.07 | –
FT3469 [2], 1000 nM | 0.688 | –
FT3469 [2], 3000 nM | 14.3 | –
FT3469 [9], 4.1 nM | – | 1.05
FT3469 [9], 12.3 nM | – | 0.924
FT3469 [9], 37 nM | – | 1.06
FT3469 [9], 111.1 nM | – | 1.03
FT3469 [9], 333.3 nM | – | 1.21
FT3469 [9], 1000 nM | – | 1
FT3469 [9], 3000 nM | – | 0.00288

CC1(C)S[C@@H]2[C@H](NC(=O)Cc3ccccc3)C(=O)N2[C@H]1C(=O)O [Benzylpenicillin sodium]
Settings | phenotypic distance | surviving fraction
E13 [5], 4.1 nM | 0.664 | –
E13 [5], 12.3 nM | 1.03 | –
E13 [5], 37 nM | 0.438 | –
E13 [5], 111.1 nM | 0.926 | –
E13 [5], 333.3 nM | 0.678 | –
E13 [5], 1000 nM | 1.04 | –
E13 [5], 3000 nM | 0.985 | –
E13 [12], 4.1 nM | – | 1.1
E13 [12], 12.3 nM | – | 1.14
E13 [12], 37 nM | – | 1.07
E13 [12], 111.1 nM | – | 1.17
E13 [12], 333.3 nM | – | 1.06
E13 [12], 1000 nM | – | 1.06
E13 [12], 3000 nM | – | 1.08
E21 [4], 4.1 nM | 0.889 | –
E21 [4], 12.3 nM | 0.821 | –
E21 [4], 37 nM | 0.791 | –
E21 [4], 111.1 nM | 0.688 | –
E21 [4], 333.3 nM | 4.43 | –
E21 [4], 1000 nM | 1.31 | –
E21 [4], 3000 nM | 0.858 | –
E21 [11], 4.1 nM | – | 1.06
E21 [11], 12.3 nM | – | 1.11
E21 [11], 37 nM | – | 1.03
E21 [11], 111.1 nM | – | 1.04
E21 [11], 333.3 nM | – | 0.968
E21 [11], 1000 nM | – | 1.14
E21 [11], 3000 nM | – | 0.993
E28 [6], 4.1 nM | 0.78 | –
E28 [6], 12.3 nM | 0.57 | –
E28 [6], 37 nM | 0.958 | –
E28 [6], 111.1 nM | 0.61 | –
E28 [6], 333.3 nM | 0.635 | –
E28 [6], 1000 nM | 0.605 | –
E28 [6], 3000 nM | 1.19 | –
E28 [13], 4.1 nM | – | 1.28
E28 [13], 12.3 nM | – | 1.09
E28 [13], 37 nM | – | 1.38
E28 [13], 111.1 nM | – | 0.946
E28 [13], 333.3 nM | – | 1.14
E28 [13], 1000 nM | – | 1.12
E28 [13], 3000 nM | – | 0.901
E31 [1], 4.1 nM | 0.966 | –
E31 [1], 12.3 nM | 0.585 | –
E31 [1], 37 nM | 0.478 | –
E31 [1], 111.1 nM | 0.839 | –
E31 [1], 333.3 nM | 1.16 | –
E31 [1], 1000 nM | 0.685 | –
E31 [1], 3000 nM | 1.21 | –
E31 [8], 4.1 nM | – | 1.03
E31 [8], 12.3 nM | – | 0.949
E31 [8], 37 nM | – | 1.1
E31 [8], 111.1 nM | – | 1.03
E31 [8], 333.3 nM | – | 1.1
E31 [8], 1000 nM | – | 0.947
E31 [8], 3000 nM | – | 0.879
E34 [7], 4.1 nM | 0.752 | –
E34 [7], 12.3 nM | 0.424 | –
E34 [7], 37 nM | 0.561 | –
E34 [7], 111.1 nM | 0.473 | –
E34 [7], 333.3 nM | 0.826 | –
E34 [7], 1000 nM | 0.717 | –
E34 [7], 3000 nM | 1.48 | –
E34 [14], 4.1 nM | – | 1.11
E34 [14], 12.3 nM | – | 0.981
E34 [14], 37 nM | – | 1.02
E34 [14], 111.1 nM | – | 1.02
E34 [14], 333.3 nM | – | 0.906
E34 [14], 1000 nM | – | 0.865
E34 [14], 3000 nM | – | 0.864
E57 [3], 4.1 nM | 0.898 | –
E57 [3], 12.3 nM | 0.449 | –
E57 [3], 37 nM | 0.995 | –
E57 [3], 111.1 nM | 0.845 | –
E57 [3], 333.3 nM | 1.07 | –
E57 [3], 1000 nM | 0.999 | –
E57 [3], 3000 nM | 1.39 | –
E57 [10], 4.1 nM | – | 1.03
E57 [10], 12.3 nM | – | 0.993
E57 [10], 37 nM | – | 1
E57 [10], 111.1 nM | – | 1.01
E57 [10], 333.3 nM | – | 1.04
E57 [10], 1000 nM | – | 0.87
E57 [10], 3000 nM | – | 0.922
FT3469 [2], 4.1 nM | 0.569 | –
FT3469 [2], 12.3 nM | 0.961 | –
FT3469 [2], 37 nM | 1.12 | –
FT3469 [2], 111.1 nM | 0.565 | –
FT3469 [2], 333.3 nM | 0.741 | –
FT3469 [2], 1000 nM | 0.951 | –
FT3469 [2], 3000 nM | 1.77 | –
FT3469 [9], 4.1 nM | – | 1.05
FT3469 [9], 12.3 nM | – | 1.29
FT3469 [9], 37 nM | – | 1.05
FT3469 [9], 111.1 nM | – | 1.18
FT3469 [9], 333.3 nM | – | 0.99
FT3469 [9], 1000 nM | – | 1.27
FT3469 [9], 3000 nM | – | 1.12

Reference: the supplement of paper PMC13207355
